# Assay results as given in patent US6946076B2, “Removal of phosphate from water” (Dudley Mills Pty Ltd., priority 2001, dated 2005).
# Settings: made by mixing lanthanum chloride, citric acid and sodium hydroxide solutions
substance,measurement,value
lanthanum hydroxy-citrate,content of clear stable solutions,up to 200 g/l
